Consider 9 compounds from PubChem BioAssay (NCI).

Among the test systems are LOX IMVI melanoma; MOLT-4 leukemia; NCI-H522 lung; EKVX NSCLC; OVCAR-8 ovarian; T-47D breast; HOP-62 NSCLC; A498 renal; TK-10 renal; SF-539 CNS.
Common to all, as to test: inhibition of tumour cell growth, NCI panel, 48 h

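Values below derive from 48-hour exposures of cells grown in 96-well plates, with endpoints linearly interpolated between the two concentrations bracketing the appropriate inhibition level. The concentration for 50% growth inhibition is given as GI50. TGI: concentration producing complete growth inhibition.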 Where a SMILES comes first, the peptide text is derived from it. [ ]: non-standard residue; d: D form. ξ: configuration not given here. Pentanoyl(2-O,4-OH,5-Cl) = O=C(O)C(O)CC(O)CCl; Ile(3ξ) = CCC(C)[C@H](N)C(=O)O; NMeV = CN[C@H](C(=O)O)C(C)C; NMeA = CN[C@@H](C)C(=O)O; βAla = NCCC(=O)O

`CCCCCCCCCCCC(c1ccccc1)[N+](C)(C)C` (centres undefined): the GI50 with LOX IMVI melanoma is 0.425 µM; with MOLT-4 leukemia, 1.36 µM; with NCI-H522 lung it was 0.294 µM; in the test on EKVX NSCLC, 1.45 µM; in the test on OVCAR-8 ovarian, 1.18 µM; with T-47D breast, 1.9 µM. The results for the GI50 in the test with HOP-62 NSCLC, in the test on A498 renal and in the test on TK-10 renal were 1.52 µM, 1.99 µM and 788 nM, respectively. The TGI in the test on LOX IMVI melanoma is 2.5 µM; in the test on MOLT-4 leukemia, 4.02 µM; in the test on NCI-H522 lung it was 1.97 µM; in the test on EKVX NSCLC, 4.63 µM; in the test on OVCAR-8 ovarian it was 3.06 µM; in the test on T-47D breast it was 9.79 µM. Moreover, the figures for the TGI with HOP-62 NSCLC, in the test on A498 renal and with TK-10 renal were 3.07 µM, 7.24 µM and 2.49 µM, respectively.

As for `CCC(C)[C@@H]1NC(=O)[C@@H]2CCCN2C(=O)C(CC(O)CCl)OC(=O)CCNC(=O)[C@H](C)N(C)C(=O)[C@H](C(C)C)N(C)C1=O` (some centres undefined) (cyclo([Ile(3ξ)][NMeV][NMeA][βAla][Pentanoyl(2-O,4-OH,5-Cl)]P)), the TGI in the test with MOLT-4 leukemia, in the test on SF-539 CNS, with NCI-H522 lung, in the test on EKVX NSCLC, in the test on OVCAR-8 ovarian and in the test with T-47D breast was > 100 µM in each case. For the same compound, the TGI was > 100 µM in the test on HOP-62 NSCLC, > 93.5 µM in the test on A498 renal and > 100 µM in the test on TK-10 renal.

As for `CC(C)(Sc1cc(C(C)(C)C)c(O)c(C(C)(C)C)c1)Sc1cc(C(C)(C)C)c(O)c(C(C)(C)C)c1`, the TGI in the test with LOX IMVI melanoma, in the test on SF-539 CNS, in the test with NCI-H522 lung, with EKVX NSCLC, in the test on OVCAR-8 ovarian and in the test on T-47D breast was > 100 µM in each case. Besides, the TGI in the test on HOP-62 NSCLC, in the test on A498 renal and with TK-10 renal was > 100 µM throughout.

With `[Cu].c1ccc2c(c1)C1=NC2=NC2=NC(=NC3=NC(=NC4=NC(=N1)c1ccccc14)c1ccccc13)c1ccccc12`, the GI50 in the test with LOX IMVI melanoma, in the test with NCI-H522 lung, in the test on EKVX NSCLC, with OVCAR-8 ovarian, in the test on T-47D breast and in the test on HOP-62 NSCLC was > 100 µM each time. Besides, the GI50 in the test with A498 renal is > 100 µM; in the test with TK-10 renal, > 100000 nM. Further, the TGI in the test on LOX IMVI melanoma, in the test with NCI-H522 lung, in the test on EKVX NSCLC, in the test on OVCAR-8 ovarian, with T-47D breast and in the test on HOP-62 NSCLC was > 100 µM throughout. The TGI in the test on A498 renal and in the test with TK-10 renal was > 100 µM throughout.

Take `Cc1cc[c]([Sb]2[O]C(CO)C(C(O)C(O)C(=O)O)[O]2)cc1` (centres undefined): the GI50 in the test on LOX IMVI melanoma is 39.9 µM; with MOLT-4 leukemia, 78.7 µM; in the test on NCI-H522 lung, 42.7 µM; in the test on EKVX NSCLC, 41 µM; in the test with OVCAR-8 ovarian, > 100 µM; in the test with T-47D breast, > 100 µM. The GI50 with HOP-62 NSCLC is 45.2 µM; with A498 renal, 32.3 µM. The TGI in the test with LOX IMVI melanoma, in the test on MOLT-4 leukemia, in the test with NCI-H522 lung, in the test on EKVX NSCLC, in the test on OVCAR-8 ovarian and in the test with T-47D breast was > 100 µM each time. The results for the TGI in the test on HOP-62 NSCLC, in the test with A498 renal and in the test on TK-10 renal were > 100 µM, 99.7 µM and 0.58 µM, respectively.

With `C/C(=C1\C(=O)Nc2ccccc21)c1cccc(/C(C)=C2/C(=O)Nc3ccccc32)n1`, the GI50 in the test on LOX IMVI melanoma is 8.4 µM; in the test with MOLT-4 leukemia, 6.95 µM; in the test on SF-539 CNS, 2490 nM; in the test on NCI-H522 lung, 9.59 µM; with EKVX NSCLC, 0.692 µM; with OVCAR-8 ovarian, 6.39 µM. Besides, the GI50 is 4.63 µM with T-47D breast, 15.5 µM with HOP-62 NSCLC and 4.44 µM in the test with A498 renal. Also, the TGI in the test with LOX IMVI melanoma is 31 µM; in the test with MOLT-4 leukemia, > 100 µM; in the test with SF-539 CNS, 7.99 µM; with NCI-H522 lung, 99.5 µM; in the test with EKVX NSCLC, 5.4 µM; in the test with OVCAR-8 ovarian, 76.8 µM. Also, the figures for the TGI with T-47D breast, in the test with HOP-62 NSCLC and with A498 renal were > 100 µM, 74.1 µM and 34.8 µM, respectively.

Regarding `O=c1[nH]c(=O)n(Cc2ccc(C34CC5CC(CC(C5)C3)C4)c(O)c2)cc1F`, the GI50 in the test on LOX IMVI melanoma is 13.4 µM; in the test with MOLT-4 leukemia, 12.4 µM; in the test with SF-539 CNS, 14700 nM; with NCI-H522 lung it was 13.1 µM; in the test with EKVX NSCLC, 16.4 µM; in the test with T-47D breast it was 13.6 µM. In addition, the GI50 was 14.6 µM with HOP-62 NSCLC, 10.2 µM in the test on A498 renal and 15400 nM in the test on TK-10 renal. Also, the TGI in the test with LOX IMVI melanoma is 27.2 µM; in the test with MOLT-4 leukemia it was 32.4 µM; with SF-539 CNS, 30.1 µM; in the test with NCI-H522 lung it was 31.9 µM; in the test with EKVX NSCLC, 35.7 µM; with T-47D breast it was 44.4 µM. Further, the TGI came out at 31.4 µM in the test with HOP-62 NSCLC, 22.1 µM with A498 renal and 33.7 µM with TK-10 renal.

On to `Clc1ccc2c(NC3CCC(NC4CCCCC4)CC3)ccnc2c1` (centres undefined), for which the GI50 with LOX IMVI melanoma was 1.75 µM; with SF-539 CNS, 2030 nM; with NCI-H522 lung, 3.37 µM; in the test with EKVX NSCLC it was 4.55 µM; with OVCAR-8 ovarian, 4.43 µM; in the test on T-47D breast it was 3.42 µM. Besides, the GI50 in the test with A498 renal was 4.07 µM; in the test on TK-10 renal, 2130 nM. In addition, the TGI is 4.29 µM in the test with LOX IMVI melanoma; 4.13 µM in the test with SF-539 CNS; 14 µM with NCI-H522 lung; 43 µM with EKVX NSCLC; 19.3 µM in the test on OVCAR-8 ovarian; 17.7 µM in the test on T-47D breast. For the same compound, the TGI in the test on A498 renal was found to be 27.4 µM; with TK-10 renal it was 7.11 µM.

With `O=C(O)CN(CCN(CC(=O)O)CC(=O)O)CCN(CC(=O)O)CC(=O)O`, the GI50 is 3.22 µM in the test on LOX IMVI melanoma; 2.57 µM in the test on MOLT-4 leukemia; 2860 nM in the test with SF-539 CNS; 3.26 µM in the test with EKVX NSCLC; 3.19 µM in the test on OVCAR-8 ovarian; 3.74 µM with T-47D breast. Also, the figures for the GI50 in the test on HOP-62 NSCLC, in the test with A498 renal and in the test with TK-10 renal were 1.98 µM, 1.86 µM and 2870 nM, respectively. Moreover, the TGI was found to be 11.6 µM in the test with LOX IMVI melanoma; 8.26 µM with MOLT-4 leukemia; 7.98 µM with SF-539 CNS; 9.91 µM with EKVX NSCLC; 14.8 µM in the test with OVCAR-8 ovarian; 14.5 µM in the test on T-47D breast. The TGI in the test on HOP-62 NSCLC amounted to 5.07 µM; in the test on A498 renal, 15.1 µM; in the test on TK-10 renal it was 7.52 µM.
